Test results from patent publication EP0321208A1, “Improvements in or relating to avian control” (priority 1987, dated 1989).
Read-outs that look alike come from different tables or passages of the source.

Experiments:
feral pigeons [1] = experiment: Four day two-choice feeding test with feral pigeons; type: in vivo; conditions: four day two-choice; 0.5% w/w compound/pellet
Protocol: (§1) Feral pigeons were transferred from a communal outdoor aviary to individual cages and maintained on a 10 hour light - 14 hour dark cycle. Birds were gradually weaned away from their normal diet of maize, wheat and maple peas to a standard laboratory diet of turkey starter pellets.
(§2) The pellets were oven dried and then left to absorb atmospheric moisture. The control food was sprayed with the same volume of acetone/water mixture.
(§3) A group of 35 feral pigeons was caged individually for the trials which used eight compounds of formula (I) together with sucrose octaacetate and dimethyl anthranilate, both of which are substances which are known to be avian repellents. Each bird was subjected to treatment with each compound in a random order subject to the limitation of a latin square design. Each treatment was presented to the birds in no-choice and two-choice conditions. The no-choice phase lasted 3 days, during which a bird was presented with a single bowl containing 120 g of treated food. Each bird was weighed before and after the no-choice phase, as was the amount of food remaining. There immediately followed a two-choice phase in which the birds could choose between food treated with a given chemical and a bowl containing otherwise identical pellets without the chemical (the control treatment utilising two bowls of acetone/water treated pellets, one of which was arbitrarily selected as the control). The two-choice phase lasted four days during which food consumption was monitored daily. The position of the food bowls was alternated each day in order to overcome the confusing of food preference with position preference and ample water and grit were supplied throughout the trial.
The data obtained in the four day two-choice test is presented in Table 5 for mean consumption of treated food. […]

quail chymotrypsin = experiment: ATEE assay: inhibition of quail intestinal chymotrypsin activity; type: biochemical, Japanese quail; conditions: compound 1 x 10⁻⁵M; ATEE substrate; percentage inhibition of control activity ± standard deviation (n = 3); 5 min, 10 µM
Protocol: The substrate was prepared by dissolving ATEE (10 mg) in Tris-HCl buffer of pH 7.5 containing 30% (v/v) of methanol (25 ml). The quail intestine protease activity was partially purified as described above prior to testing for chymotrypsin activity. The reaction was carried out in a quartz cuvette (1 x 0.25 x 1 cm³) containing substrate (1 ml) and 100 mM Tris-HCl buffer (200 µl). The reaction was started by the addition of the partially purified intestine protease (200 µl) and followed bv the decrease in absorbance at 237 nm over a 5 minute period. All determinations were carried out in triplicate against a reagent blank.

bullfinch trypsin = experiment: BAEE assay: inhibition of bullfinch intestinal trypsin activity; type: biochemical; conditions: compound 1 x 10⁻⁵M; BAEE substrate; percentage inhibition of control activity ± standard deviation (n = 3); 7 min, 10 µM
Protocol: (§4) Dried avian intestine powder (500 mg) was extracted for 30 minutes in 1 mM HC₁ (5 ml). The extract was centrifuged at 22,000 x g for 30 minutes at 4°C. The resultant supernatant was applied to a column of Sephadex G-50, medium grade (360 mm x 15 mm) and eluted with 0.5 mM HCl at 0.7 ml/min. Fractions (3.5 ml) were collected and tested for the presence of protein by determining their absorbance at 280 nm. The proteinaceous fractions were bulked and concentrated by passing them through an ultrafiltration unit (YM 30 filter). The concentrate was collected and kept at 4°C throughout its use.
The substrate was prepared bv dissolving BAEE (10 mg) in a mixture of 50 mM Tris-HCl buffer of pH 7.5 (24 ml) and 5% (w/v) calcium chloride solution (1 ml). The bullfinch intestine protease activity was partially purified as described above prior to testing for trypsin activity. The reaction was carried out in a quartz cuvette (1 x 0.25 x 1 cm³) containing substrate (1 ml) and 50 mM Tris-HCl buffer (200 µl). The reaction was started by the addition of the partially purified intestine protease 1200 µl) and followed by the decrease in absorbance at 253 nm over a 7 minute period. All determinations were carried out in triplicate against a reagent blank.
(§5) In both the chymotrypsin and the trypsin assays a control was however carried out using the 200 µl of buffer containing no added compound.

[2] = pear buds
pigeon trypsin = experiment: TAME assay: inhibition of pigeon intestinal trypsin activity; type: biochemical; conditions: compound 60 µg/ml; TAME substrate; percentage inhibition of control activity ± standard deviation (n = 3); 5 min
Protocol: as §4
The substrate was prepared by dissolving TAME (19 mg) in a mixture of 100 mM Tris-HCl buffer of pH 7.5 (50 ml) and 5% (w/v) calcium chloride solution (2 ml). The pigeon intestine protease was partially purified as described above prior to testing for trypsin activity. The reaction was carried out in a quartz cuvette (1 x 0.25 x 1 cm³) containing substrate (3 ml) and 100 mM Tris-HCl buffer pH 7.5 (100 µl). The reaction was started by the addition of the partially purified intestine protease (100 µl) and followed by the decrease in absorbance at 247 nm over a 5 minute period.
as §5

feral pigeons [3] = experiment: Three day no-choice feeding test with feral pigeons; type: in vivo; conditions: 0.5% w/w compound/pellet, ± standard deviation; for Mean weight difference: after the test compared with before; for Mean consumption: treated food
Protocol: as §1, §2, §3

Compound | Mean consumption of treated food (feral pigeons [1]) [grams] | Inhibition of Activity Chymotrypsin (quail chymotrypsin) [percentage] | Inhibition of Activity Trypsin (bullfinch trypsin) [percentage] | residues as a percentage of the initial level ([2]; 192 h) [%] | Inhibition of Activity (pigeon trypsin) [percentage] | Mean weight difference (feral pigeons [3]) [grams] | Mean consumption (feral pigeons [3]) [grams] | residues as a percentage of the initial level ([2]; 1224 h) [%]
O=C(O)C=Cc1ccc(O)c(O)c1 [3,4-Dihydroxycinnamic acid] | 31.1 ± 3.4 | 85 ± 2 | 43 ± 3 | 8 | 22 ± 1 | 2.3 ± 1.1 | 63.3 ± 3.0 | 
O=C(O)C=Cc1ccccc1 [Cinnamic Acid, cinnamic acid] | 25.2 ± 2.9 | 32 ± 3 | 85 ± 2 | 41 | 93 ± 3 | 2.4 ± 1.1 | 60.4 ± 3.1 | 3
